The values that follow are results of earlier work, collected in patent US20200315965A1, “NANOEMULSION CONCENTRATE FORMULATIONS AND METHODS” (priority 2019, published 2020).

The conditions of this data set: water.

For the molecule `CCCCCc1cc(O)c2c(c1)OC(C)(C)[C@@H]1CCC(C)=C[C@@H]21` [THC, tetrahydrocannabinol], the aqueous solubility is ~0.003 milligrams per milliliter.
